Measured values taken from patent publication US20230122249A1, “1H-PYRAZOLO[4,3-d]PYRIMIDINE COMPOUNDS AS TOLL-LIKE RECEPTOR 7 (TLR7) AGONISTS” (BRISTOL-MYERS SQUIBB COMPANY, priority 2020, published 2023).

Biological target: T1, human TLR7 (Homo sapiens, UniProt Q9NYK1)
T1 construct: host or cells: HEK-Blue TLR7 cells (engineered human embryonic kidney cells)
T1 sequence (Q9NYK1 27-1049): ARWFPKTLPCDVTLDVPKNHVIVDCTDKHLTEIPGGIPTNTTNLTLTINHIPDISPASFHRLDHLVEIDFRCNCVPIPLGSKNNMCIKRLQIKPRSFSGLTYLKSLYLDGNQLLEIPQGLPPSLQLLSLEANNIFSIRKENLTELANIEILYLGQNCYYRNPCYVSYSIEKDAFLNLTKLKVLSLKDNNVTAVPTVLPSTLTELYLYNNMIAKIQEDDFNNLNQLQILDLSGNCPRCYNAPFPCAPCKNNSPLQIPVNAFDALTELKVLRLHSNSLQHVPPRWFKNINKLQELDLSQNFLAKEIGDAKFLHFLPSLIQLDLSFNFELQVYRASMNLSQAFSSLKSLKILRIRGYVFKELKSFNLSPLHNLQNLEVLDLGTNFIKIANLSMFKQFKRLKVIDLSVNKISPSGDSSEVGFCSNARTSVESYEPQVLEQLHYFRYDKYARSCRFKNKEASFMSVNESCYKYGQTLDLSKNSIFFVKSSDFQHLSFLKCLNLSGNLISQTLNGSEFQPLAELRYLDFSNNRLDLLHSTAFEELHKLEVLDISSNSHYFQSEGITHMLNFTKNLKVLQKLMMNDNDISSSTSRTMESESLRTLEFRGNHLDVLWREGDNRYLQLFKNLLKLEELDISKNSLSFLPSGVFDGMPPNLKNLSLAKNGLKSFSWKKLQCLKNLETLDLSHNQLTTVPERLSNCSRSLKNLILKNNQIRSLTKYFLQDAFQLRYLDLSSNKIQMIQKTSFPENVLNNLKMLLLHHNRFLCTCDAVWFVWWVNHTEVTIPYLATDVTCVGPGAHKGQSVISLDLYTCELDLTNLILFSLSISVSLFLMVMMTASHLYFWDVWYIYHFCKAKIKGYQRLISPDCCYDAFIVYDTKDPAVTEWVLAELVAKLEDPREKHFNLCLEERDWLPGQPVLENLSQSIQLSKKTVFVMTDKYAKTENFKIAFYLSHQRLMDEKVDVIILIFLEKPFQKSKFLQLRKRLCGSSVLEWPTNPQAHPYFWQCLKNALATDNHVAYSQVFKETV
Experiment: Human TLR7 agonist activity (hTLR7 reporter) assay in HEK-Blue TLR7 cells, SEAP readout
Assay type: cell-based
Conditions: 18 h treatment, average where assay repeated
Outline: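 HEK-Blue TLR7 cells (15,000/well) treated with compound for 18 h at 37 °C, 5% CO2. Secreted SEAP measured with Quanti-Blue, 30 min, OD 620 nm. EC50 taken as concentration giving half-maximal response between baseline and maximum.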

Q: How did the EC50 turn out when `CN1CCN(C(=O)c2ccc(Cn3ncc4nc(N)nc(NCC5CC6(CC6)C5)c43)c(OC(F)F)c2)CC1` [Compound 221] was run?
A: 247 nM

Q: For `COc1cc(C(=O)N(C)CCN(C)C)ccc1Cn1ncc2nc(N)nc(NCC3CC4(CC4)C3)c21` [Compound 222], which EC50 is on record?
A: 16 nM

Q: For `Nc1nc(NCC2CC3(CC3)C2)c2c(cnn2Cc2ccc(C(=O)C3C[C@H]4CNC[C@H]4N3)cc2OC(F)F)n1` (stereo partly drawn) [Compound 224], which EC50 is on record?
A: 1400 nM

Q: Which EC50 does the source give for `COc1cc(C(=O)NC2CCN(CCO)CC2)ccc1Cn1ncc2nc(N)nc(NCC3CC4(CC4)C3)c21` [Compound 225] here?
A: 1220 nM

Q: How did the EC50 turn out when `COc1cc(C(=O)N2CCC(S(C)(=O)=O)CC2)ccc1Cn1ncc2nc(N)nc(NCC3CC4(CC4)C3)c21` [Compound 226] was run?
A: 425 nM

Q: `COc1cc(C(=O)N2CCS(=O)(=O)CC2)ccc1Cn1ncc2nc(N)nc(NCC3CC4(CC4)C3)c21` [Compound 227] was tested. Which EC50 did it give?
A: 507 nM

Q: With `COc1cc(C(=O)N(CCO)CCO)ccc1Cn1ncc2nc(N)nc(NCC3CC4(CC4)C3)c21` [Compound 228] as the compound, how does the EC50 read?
A: 894 nM

Q: For `CCC[C@@H](CCO)Nc1nc(N)nc2cnn(Cc3ccc(C(=O)N4CC5(C4)CN(C4CCOCC4)C5)cc3OC)c12` [Compound 229], which EC50 is on record?
A: 37.9 nM

Q: How did the EC50 turn out when `COc1cc(C(=O)NC2CCN(CC(=O)N(C)C)CC2)ccc1Cn1ncc2nc(N)nc(NCC3CC4(CC4)C3)c21` [Compound 230] was run?
A: 276 nM

Q: Which EC50 does the source give for `COc1cc(C(=O)NCCCN(C)C)ccc1Cn1ncc2nc(N)nc(NCC3CC4(CC4)C3)c21` [Compound 231] here?
A: 166 nM

Q: For `CCC[C@@H](CCO)Nc1nc(N)nc2cnn(Cc3ccc(C(=O)N4CC5(C4)CN(C(C)C)C5)cc3OC)c12` [Compound 232], which EC50 is on record?
A: 37.1 nM

Q: Which EC50 does the source give for `CCC[C@@H](CCO)Nc1nc(N)nc2cnn(Cc3ccc(C(=O)N4CC5(CN(CCO)C5)C4)cc3OC)c12` [Compound 233] here?
A: 412 nM

Q: Which EC50 does the source give for `COc1cc(C(=O)NCCN(C)C)ccc1Cn1ncc2nc(N)nc(NCC3CC4(CC4)C3)c21` [Compound 234] here?
A: 93.2 nM

Q: With `COc1cc(C(=O)N2CCN(C(C)=O)CC2)ccc1Cn1ncc2nc(N)nc(NCC3CC4(CC4)C3)c21` [Compound 235] as the compound, how does the EC50 read?
A: 146 nM

Q: `COc1cc(C(=O)N2CCN(S(C)(=O)=O)CC2)ccc1Cn1ncc2nc(N)nc(NCC3CC4(CC4)C3)c21` [Compound 236] was tested. Which EC50 did it give?
A: 199 nM

Q: Which EC50 does the source give for `COc1cc(C(=O)N2CCN(CC(F)(F)F)CC2)ccc1Cn1ncc2nc(N)nc(NCC3CC4(CC4)C3)c21` [Compound 237] here?
A: 589 nM

Q: `COc1cc(C(=O)NC2CCN(CC(C)(C)O)CC2)ccc1Cn1ncc2nc(N)nc(NCC3CC4(CC4)C3)c21` [Compound 238] was tested. Which EC50 did it give?
A: 86 nM

Q: How did the EC50 turn out when `COc1cc(C(=O)N2CCN(CC(C)(C)O)CC2)ccc1Cn1ncc2nc(N)nc(NCC3CC4(CC4)C3)c21` [Compound 239] was run?
A: 39 nM

Q: How did the EC50 turn out when `COc1cc(C(=O)N2C[C@@H]3CN(S(C)(=O)=O)C[C@@H]3C2)ccc1Cn1ncc2nc(N)nc(NCC3CC4(CC4)C3)c21` [Compound 240] was run?
A: 291 nM

Q: For `COc1cc(CN2CC3(C2)CN(C[C@H](C)O)C3)ccc1Cn1ncc2nc(N)nc(NCC3CC4(CC4)C3)c21` [Compound 241], which EC50 is on record?
A: 72.9 nM

Q: How did the EC50 turn out when `Nc1nc(NCC2CC3(CC3)C2)c2c(cnn2Cc2ccc(CN3CC4(CNC4)C3)cc2OC(F)F)n1` [Compound 242] was run?
A: 829 nM

Q: For `Nc1nc(NCC2CC3(CC3)C2)c2c(cnn2Cc2ccc(CN3C[C@H]4CNC[C@H]4C3)cc2OC(F)F)n1` [Compound 243], which EC50 is on record?
A: 283 nM

Q: `CCCCNc1nc(N)nc2c(C)nn(Cc3ccc(CN4CC5(C4)CN(C(C)=O)C5)cc3OC)c12` [Compound 244] was tested. Which EC50 did it give?
A: 138 nM

Q: `CCC[C@@H](CCO)Nc1nc(N)nc2c(F)nn(Cc3ccc(CN4CC5(CNC5)C4)cc3OC)c12` [Compound 245] was tested. Which EC50 did it give?
A: 40.6 nM

Test system: CD69 in human whole blood
Experiment: Induction of CD69 in human whole blood (hWB)
Assay type: cell-based
Conditions: heparinized human whole blood, 17 h, CD69 surface staining; 100% set to 1 uM resiquimod; average where assay repeated
Outline: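 hWB stimulated with compound at 1 uM final (1 mM stock), 37° C o/n (17 hrs). Surface CD69-PE staining with CD14/CD19 gating, fix/lysis, then flow cytometry read. IC50 curves with 100% set to 1 uM resiquimod.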

Q: `CN1CCN(C(=O)c2ccc(Cn3ncc4nc(N)nc(NCC5CC6(CC6)C5)c43)c(OC(F)F)c2)CC1` [Compound 221] was tested. Which EC50 did it give?
A: 50.6 nM

Q: With `COc1cc(C(=O)N(C)CCN(C)C)ccc1Cn1ncc2nc(N)nc(NCC3CC4(CC4)C3)c21` [Compound 222] as the compound, how does the EC50 read?
A: 2.4 nM

Q: With `Nc1nc(NCC2CC3(CC3)C2)c2c(cnn2Cc2ccc(C(=O)C3C[C@H]4CNC[C@H]4N3)cc2OC(F)F)n1` (stereo partly drawn) [Compound 224] as the compound, how does the EC50 read?
A: 520 nM

Q: How did the EC50 turn out when `COc1cc(C(=O)NC2CCN(CCO)CC2)ccc1Cn1ncc2nc(N)nc(NCC3CC4(CC4)C3)c21` [Compound 225] was run?
A: 218 nM

Q: For `COc1cc(C(=O)N2CCC(S(C)(=O)=O)CC2)ccc1Cn1ncc2nc(N)nc(NCC3CC4(CC4)C3)c21` [Compound 226], which EC50 is on record?
A: 555 nM

Q: With `COc1cc(C(=O)N2CCS(=O)(=O)CC2)ccc1Cn1ncc2nc(N)nc(NCC3CC4(CC4)C3)c21` [Compound 227] as the compound, how does the EC50 read?
A: 125 nM

Q: `COc1cc(C(=O)N(CCO)CCO)ccc1Cn1ncc2nc(N)nc(NCC3CC4(CC4)C3)c21` [Compound 228] was tested. Which EC50 did it give?
A: 553 nM

Q: Which EC50 does the source give for `CCC[C@@H](CCO)Nc1nc(N)nc2cnn(Cc3ccc(C(=O)N4CC5(C4)CN(C4CCOCC4)C5)cc3OC)c12` [Compound 229] here?
A: 37.6 nM

Q: How did the EC50 turn out when `COc1cc(C(=O)NC2CCN(CC(=O)N(C)C)CC2)ccc1Cn1ncc2nc(N)nc(NCC3CC4(CC4)C3)c21` [Compound 230] was run?
A: 197 nM

Q: `COc1cc(C(=O)NCCCN(C)C)ccc1Cn1ncc2nc(N)nc(NCC3CC4(CC4)C3)c21` [Compound 231] was tested. Which EC50 did it give?
A: 32.4 nM

Q: For `CCC[C@@H](CCO)Nc1nc(N)nc2cnn(Cc3ccc(C(=O)N4CC5(C4)CN(C(C)C)C5)cc3OC)c12` [Compound 232], which EC50 is on record?
A: 32.9 nM

Q: With `CCC[C@@H](CCO)Nc1nc(N)nc2cnn(Cc3ccc(C(=O)N4CC5(CN(CCO)C5)C4)cc3OC)c12` [Compound 233] as the compound, how does the EC50 read?
A: 265 nM

Q: Which EC50 does the source give for `COc1cc(C(=O)NCCN(C)C)ccc1Cn1ncc2nc(N)nc(NCC3CC4(CC4)C3)c21` [Compound 234] here?
A: 10.2 nM

Q: How did the EC50 turn out when `COc1cc(C(=O)N2CCN(C(C)=O)CC2)ccc1Cn1ncc2nc(N)nc(NCC3CC4(CC4)C3)c21` [Compound 235] was run?
A: 223 nM

Q: Which EC50 does the source give for `COc1cc(C(=O)N2CCN(S(C)(=O)=O)CC2)ccc1Cn1ncc2nc(N)nc(NCC3CC4(CC4)C3)c21` [Compound 236] here?
A: 284 nM

Q: How did the EC50 turn out when `COc1cc(C(=O)N2CCN(CC(F)(F)F)CC2)ccc1Cn1ncc2nc(N)nc(NCC3CC4(CC4)C3)c21` [Compound 237] was run?
A: 958 nM

Q: `COc1cc(C(=O)NC2CCN(CC(C)(C)O)CC2)ccc1Cn1ncc2nc(N)nc(NCC3CC4(CC4)C3)c21` [Compound 238] was tested. Which EC50 did it give?
A: 35.2 nM

Q: With `COc1cc(C(=O)N2CCN(CC(C)(C)O)CC2)ccc1Cn1ncc2nc(N)nc(NCC3CC4(CC4)C3)c21` [Compound 239] as the compound, how does the EC50 read?
A: 110 nM

Q: With `COc1cc(C(=O)N2C[C@@H]3CN(S(C)(=O)=O)C[C@@H]3C2)ccc1Cn1ncc2nc(N)nc(NCC3CC4(CC4)C3)c21` [Compound 240] as the compound, how does the EC50 read?
A: 845 nM

Q: Which EC50 does the source give for `COc1cc(CN2CC3(C2)CN(C[C@H](C)O)C3)ccc1Cn1ncc2nc(N)nc(NCC3CC4(CC4)C3)c21` [Compound 241] here?
A: 14 nM

Q: For `Nc1nc(NCC2CC3(CC3)C2)c2c(cnn2Cc2ccc(CN3CC4(CNC4)C3)cc2OC(F)F)n1` [Compound 242], which EC50 is on record?
A: 588 nM

Q: Which EC50 does the source give for `Nc1nc(NCC2CC3(CC3)C2)c2c(cnn2Cc2ccc(CN3C[C@H]4CNC[C@H]4C3)cc2OC(F)F)n1` [Compound 243] here?
A: 193 nM

Q: Which EC50 does the source give for `CCCCNc1nc(N)nc2c(C)nn(Cc3ccc(CN4CC5(C4)CN(C(C)=O)C5)cc3OC)c12` [Compound 244] here?
A: 31.1 nM

Q: Which EC50 does the source give for `CCC[C@@H](CCO)Nc1nc(N)nc2c(F)nn(Cc3ccc(CN4CC5(CNC5)C4)cc3OC)c12` [Compound 245] here?
A: 1.2 nM
